Results on 24 compounds are retold here after patent US20230399312A1, “SUBSTITUTED PYRIMIDINES AND METHODS OF USE” (THERAVANCE BIOPHARMA R&D IP, LLC, priority 2020, published 2023).

Assay [1] relates to TGF-β-stimulated SMAD3 phosphorylation in BEAS-2B cells. Briefly: Cellular ALK5 potency assay, inhibition of TGF-β stimulated pSMAD3 formation in BEAS-2B cells. The format is cell-based. The following applies: Homo sapiens, pSMAD3, TGF-β 10 ng/mL, read-out: BEAS2B pIC50 (converted). A digest of the protocol: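 Cells were seeded overnight, rinsed into HEPES/BSA-supplemented HBSS, and dosed with serially diluted compound for 1 h at 37 °C, 5% CO2. TGF-β stimulation (10 ng/mL final) followed for 30 min, then lysis and AlphaLISA pSMAD3 measurement; potency reported as pIC50.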

Assay [2] addresses T1, recombinant human ALK5 (TGF-βR1) protein (Homo sapiens, UniProt P36897).
T1 construct: purchased Life Technologies PR9075A
T1 sequence (P36897 34-503): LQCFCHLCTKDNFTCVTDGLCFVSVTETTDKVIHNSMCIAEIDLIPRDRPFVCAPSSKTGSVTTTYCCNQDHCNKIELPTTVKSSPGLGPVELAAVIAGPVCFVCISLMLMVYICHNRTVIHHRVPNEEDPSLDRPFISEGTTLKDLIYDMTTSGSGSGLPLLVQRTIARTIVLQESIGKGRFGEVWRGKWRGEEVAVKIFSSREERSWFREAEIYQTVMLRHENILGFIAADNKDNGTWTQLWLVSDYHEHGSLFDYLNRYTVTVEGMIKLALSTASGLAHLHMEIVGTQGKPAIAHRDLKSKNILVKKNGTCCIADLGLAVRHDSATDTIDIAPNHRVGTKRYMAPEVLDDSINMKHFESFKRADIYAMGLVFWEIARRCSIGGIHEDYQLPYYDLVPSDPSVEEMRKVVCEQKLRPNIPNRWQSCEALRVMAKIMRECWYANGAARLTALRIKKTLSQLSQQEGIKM
Briefly: Biochemical ALK5 (TGF-βR1) assay to measure pKi (LANCE Ultra ULight kinase assay). As to conditions: apparent pKi, converted from pIC50 by Cheng-Prusoff. A digest of the protocol:
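Europium TR-FRET kinase assay: the enzyme is exposed to compound for 60 min at room temperature, and reaction with ATP runs 60 min at 37 °C. Percent inhibition relative to DMSO and SD-208 controls gives pIC50, which is converted to pKi.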

Where only a bound is given, the exact number is not on record here.

Turning to `Cc1cccc(-c2nccc(Nc3ccnc(Nc4ccc(CN5C[C@H]6CC[C@@H](C5)N6)cc4)n3)n2)n1` [Compound 75, N4-[2-(6-methyl-2-pyridyl)pyrimidin-4-yl]-N2-[4-[[rac-(1S,5R)-3,8-diazabicyclo[3.2.1]octan-3-yl]methyl]phenyl]pyrimidine-2,4-diamine], the IC50 in assay [1] was 25.1 to 158 nM. Further, the Ki in assay [2] was 0.0398 to 0.316 nM.
For `Cc1cccc(-c2nccc(Nc3ccnc(Nc4cccc(C(=O)N5CCN(C(C)C)CC5)c4)n3)n2)n1` [Compound 292, (4-isopropylpiperazin-1-yl)-[3-[[4-[[2-(6-methyl-2-pyridyl)pyrimidin-4-yl]amino]pyrimidin-2-yl]amino]phenyl]methanone], in that order: 25.1 to 158 nM and 0.398 to 3.16 nM.
For `Cc1cccc(-c2nccc(Nc3ccnc(Nc4ccc(NC(=O)C5(O)CNC5)cc4)n3)n2)n1` [Compound 180, 3-hydroxy-N-[4-[[4-[[2-(6-methyl-2-pyridyl)pyrimidin-4-yl]amino]pyrimidin-2-yl]amino]phenyl]azetidine-3-carboxamide] the same measures were 25.1 to 158 nM and 0.0398 to 0.316 nM.
For `Cc1cccc(-c2nc(Nc3ccnc(Nc4ccc(NC5CCNC5)cc4)n3)c3cccn3n2)n1` (stereo not drawn) [Compound 1041, N4-[2-(6-methyl-2-pyridyl)pyrrolo[2,1-f][1,2,4]triazin-4-yl]-N2-[4-(pyrrolidin-3-ylamino)phenyl]pyrimidine-2,4-diamine] the same measures were 25.1 to 158 nM and 0.0398 to 0.316 nM.
`Cc1cccc(-c2nccc(Nc3ccnc(Nc4ccc(N5CCNCC5)c(C#N)c4)n3)n2)n1` [Compound 447, 5-[[4-[[2-(6-methyl-2-pyridyl)pyrimidin-4-yl]amino]pyrimidin-2-yl]amino]-2-piperazin-1-yl-benzonitrile]: the IC50 in assay [1] is 25.1 to 158 nM. In addition, the Ki in assay [2] was 0.0398 to 0.316 nM.
For `Cc1cccc(-c2nccc(Nc3ccnc(Nc4ccc(S(=O)(=O)N5CCNCC5)cc4)n3)n2)n1` [Compound 21, N4-[2-(6-methyl-2-pyridyl)pyrimidin-4-yl]-N2-(4-piperazin-1-ylsulfonylphenyl)pyrimidine-2,4-diamine] the same measures were 25.1 to 158 nM and 0.0398 to 0.316 nM.
For `Cc1cccc(-c2nccc(Nc3ccnc(Nc4ccc(CN5CCCC(C(=O)OCC6CNC6)C5)cc4)n3)n2)n1` (stereo not drawn) [Compound 318, azetidin-3-ylmethyl 1-[[4-[[4-[[2-(6-methyl-2-pyridyl)pyrimidin-4-yl]amino]pyrimidin-2-yl]amino]phenyl]methyl] piperidine-3-carboxylate], in that order: 25.1 to 158 nM and 0.0398 to 0.316 nM.
For `Cc1cccc(-c2nccc(Nc3ccnc(Nc4cncc(CN5CC(C(=O)OCC6CNC6)C5)c4)n3)n2)n1` [Compound 614, azetidin-3-ylmethyl 1-[[5-[[4-[[2-(6-methyl-2-pyridyl)pyrimidin-4-yl]amino]pyrimidin-2-yl]amino]-3-pyridyl]methyl]azetidine-3-carboxylate], in that order: 25.1 to 158 nM and 0.0398 to 0.316 nM.
For the compound `Cc1cccc(-c2nccc(Nc3ccnc(Nc4ccc(N5CCNCC5C)cc4)n3)n2)n1` (racemic) [Compound 216, N4-[2-(6-methyl-2-pyridyl)pyrimidin-4-yl]-N2-[4-[rac-(2S)-2-methylpiperazin-1-yl]phenyl]pyrimidine-2,4-diamine], the IC50 in assay [1] was 25.1 to 158 nM. For the same compound, the Ki in assay [2] was 0.0398 to 0.316 nM.
For `Cc1cccc(-c2nccc(Nc3ccnc(Nc4nc(CN5CCNCC5)cs4)n3)n2)n1` [Compound 287, N4-(2-(6-methylpyridin-2-yl)pyrimidin-4-yl)-N2-(4-(piperazin-1-ylmethyl)thiazol-2-yl)pyrimidine-2,4-diamine] the same measures were 25.1 to 158 nM and 0.398 to 3.16 nM.
Take `Cc1cccc(-c2nccc(Nc3ccnc(Nc4ccc(CN5CCS(=O)(=O)CC5)cc4)n3)n2)n1` [Compound 417, N2-[4-[(1,1-dioxo-1,4-thiazinan-4-yl)methyl]phenyl]-N4-[2-(6-methyl-2-pyridyl)pyrimidin-4-yl]pyrimidine-2,4-diamine]: in assay [1], the IC50 is 25.1 to 158 nM. For the same compound, the Ki in assay [2] was 0.0398 to 0.316 nM.
For `Cc1cccc(-c2nccc(Nc3ccnc(Nc4csc(NC(=O)C5CCNC5)c4)n3)n2)n1` (stereo not drawn) [Compound 364, N-[4-[[4-[[2-(6-methyl-2-pyridyl)pyrimidin-4-yl]amino]pyrimidin-2-yl]amino]-2-thienyl]pyrrolidine-3-carboxamide] the same measures were at most 20 nM and at most 0.0316 nM.
For `Cc1cccc(-c2nccc(Nc3ccnc(Nc4ccc(CN5CC(C(=O)O[C@H]6CCN(C)C6)C5)cc4)n3)n2)n1` [Compound 97, [(3S)-1-methylpyrrolidin-3-yl] 1-[[4-[[4-[[2-(6-methyl-2-pyridyl)pyrimidin-4-yl]amino]pyrimidin-2-yl]amino]phenyl]methyl] azetidine-3-carboxylate], in that order: 25.1 to 158 nM and 0.0398 to 0.316 nM.
As to `Cc1cccc(-c2nccc(Nc3ccnc(Nc4ccc(C(=O)O[C@H]5CCN(C)C5)s4)n3)n2)n1` [Compound 507, [(3S)-1-methylpyrrolidin-3-yl] 5-[[4-[[2-(6-methyl-2-pyridyl)pyrimidin-4-yl]amino]pyrimidin-2-yl]amino]thiophene-2-carboxylate], the IC50 in assay [1] is 25.1 to 158 nM. The Ki in assay [2] is 0.0398 to 0.316 nM.
Turning to `Fc1cc(F)c(-c2nccc(Nc3ccnc(Nc4ccc(N5CCC(N6CCCC6)CC5)cc4)n3)n2)cc1Cl` [Compound 314, N4-[2-(5-chloro-2,4-difluoro-phenyl)pyrimidin-4-yl]-N2-[4-(4-pyrrolidin-1-yl-1-piperidyl)phenyl]pyrimidine-2,4-diamine], in assay [1], the IC50 was 25.1 to 158 nM. In addition, in assay [2], the Ki is 0.0398 to 0.316 nM.
For `Cc1cccc(-c2nccc(Nc3ccnc(Nc4ccc(N5CC(N)C5)cc4)n3)n2)n1` [Compound 98, N2-[4-(3-aminoazetidin-1-yl)phenyl]-N4-[2-(6-methyl-2-pyridyl)pyrimidin-4-yl]pyrimidine-2,4-diamine] the same measures were 25.1 to 158 nM and 0.0398 to 0.316 nM.
For `Cc1cccc(-c2nccc(Nc3ccnc(Nc4ccc(N5CCNCC5)c(CC(=O)OC5CNC5)c4)n3)n2)n1` [Compound 530, azetidin-3-yl 2-[5-[[4-[[2-(6-methyl-2-pyridyl)pyrimidin-4-yl]amino]pyrimidin-2-yl]amino]-2-piperazin-1-yl-phenyl]acetate], in assay [1], the IC50 was 200 to 1260 nM. For the same compound, in assay [2], the Ki was 0.0398 to 0.316 nM.
As to `Cc1cccc(-c2nccc(Nc3ccnc(Nc4cccc(S(=O)(=O)N5CCNCC5)c4)n3)n2)n1` [Compound 306, N4-[2-(6-methyl-2-pyridyl)pyrimidin-4-yl]-N2-(3-piperazin-1-ylsulfonylphenyl)pyrimidine-2,4-diamine], the IC50 in assay [1] is 25.1 to 158 nM. Besides, in assay [2], the Ki was 3.98 to 31.6 nM.
In the case of `Cc1cccc(-c2nccc(Nc3ccnc(Nc4ccc(CN5CC6(CNC6)C5)cc4)n3)n2)n1` [Compound 163, N2-[4-(2,6-diazaspiro[3.3]heptan-2-ylmethyl)phenyl]-N4-[2-(6-methyl-2-pyridyl)pyrimidin-4-yl]pyrimidine-2,4-diamine], in assay [1], the IC50 was 25.1 to 158 nM. In addition, in assay [2], the Ki is 0.0398 to 0.316 nM.
With `CCOC(=O)Cc1cc(Nc2ccnc(Nc3ccc(N4CCNCC4)cc3)n2)nc(-c2cccc(C)n2)n1` [Compound 529, ethyl 2-[2-(6-methyl-2-pyridyl)-6-[[2-(4-piperazin-1-ylanilino)pyrimidin-4-yl]amino]pyrimidin-4-yl]acetate], the IC50 in assay [1] was 25.1 to 158 nM. Moreover, the Ki in assay [2] was 3.98 to 31.6 nM.
For `COC(=O)C1CCN(Cc2ccc(Nc3nccc(Nc4ccnc(-c5cccc(C)n5)n4)n3)cc2)CC1` [Compound 28, methyl 1-[[4-[[4-[[2-(6-methyl-2-pyridyl)pyrimidin-4-yl]amino]pyrimidin-2-yl]amino]phenyl]methyl] piperidine-4-carboxylate], in that order: at most 20 nM and 0.0398 to 0.316 nM.
As to `Cc1cccc(-c2nccc(Nc3ccnc(Nc4csc(C(=O)OC[C@@H]5CCCCN5)c4)n3)n2)n1` [Compound 639, [(2S)-2-piperidyl]methyl 4-[[4-[[2-(6-methyl-2-pyridyl)pyrimidin-4-yl]amino]pyrimidin-2-yl]amino]thiophene-2-carboxylate], in assay [1], the IC50 is 25.1 to 158 nM. Moreover, the Ki in assay [2] was 0.0398 to 0.316 nM.
For `Cc1cccc(-c2nccc(Nc3ccnc(Nc4ccc(N5CCN(CCN)CC5)cc4)n3)n2)n1` [Compound 478, N2-[4-[4-(2-aminoethyl)piperazin-1-yl]phenyl]-N4-[2-(6-methyl-2-pyridyl)pyrimidin-4-yl]pyrimidine-2,4-diamine] the same measures were 200 to 1260 nM and 0.0398 to 0.316 nM.
As to `Cc1cccc(-c2nccc(Nc3ccnc(Nc4ccc(CN5CCCNCC5)cc4)n3)n2)n1` [Compound 377, N2-[4-(1,4-diazepan-1-ylmethyl)phenyl]-N4-[2-(6-methyl-2-pyridyl)pyrimidin-4-yl]pyrimidine-2,4-diamine], in assay [1], the IC50 is 25.1 to 158 nM. The Ki in assay [2] is 0.0398 to 0.316 nM.
